Test results reported in patent publication US20110053916A1 (Vertex Pharmaceuticals Incorporated, priority 2009, published 2011).

molecular target: T1, PknB (Mycobacterium tuberculosis, UniProt P9WI81); assay: biochemical; parameters: species or system M. tuberculosis; conditions: 3 nM PknB, 6 uM GarA, 3 μM ATP, 30 min; competitive tight-binding fit; several symbols in a cell = repeat determinations; read-out: Ki Values
T1 construct: made in house
T1 sequence (P9WI81 whole entry): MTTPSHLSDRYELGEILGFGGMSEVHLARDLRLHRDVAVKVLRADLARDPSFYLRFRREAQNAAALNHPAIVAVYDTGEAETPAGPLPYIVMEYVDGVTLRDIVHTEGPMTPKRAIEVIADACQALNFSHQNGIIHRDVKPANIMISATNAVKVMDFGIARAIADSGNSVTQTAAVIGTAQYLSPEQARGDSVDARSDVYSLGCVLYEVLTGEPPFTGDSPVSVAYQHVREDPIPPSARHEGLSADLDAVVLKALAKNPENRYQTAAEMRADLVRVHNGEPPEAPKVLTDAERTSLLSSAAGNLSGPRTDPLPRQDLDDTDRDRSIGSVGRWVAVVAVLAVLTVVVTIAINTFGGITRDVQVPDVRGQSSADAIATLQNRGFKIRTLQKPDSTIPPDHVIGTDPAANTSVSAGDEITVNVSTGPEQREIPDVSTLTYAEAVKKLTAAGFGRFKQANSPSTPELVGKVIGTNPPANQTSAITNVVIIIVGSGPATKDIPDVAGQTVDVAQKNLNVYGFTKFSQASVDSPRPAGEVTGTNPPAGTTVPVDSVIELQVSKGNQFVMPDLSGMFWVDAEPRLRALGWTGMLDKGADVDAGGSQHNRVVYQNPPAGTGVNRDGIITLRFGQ

First: CC(=O)c1sc(-c2ncc(Cl)c(Nc3cc(C4CC4)[nH]n3)n2)nc1C [Compound 297, 1-(2-(5-Chloro-4-(5-cyclopropyl-1H-pyrazol-3-ylamino)pyrimidin-2-yl)-4-methylthiazol-5-yl)ethanone]
Second: OC1CCCc2nc(-c3ncc(Cl)c(Nc4cc(C5CC5)[nH]n4)n3)sc21 (centres unmarked) [Compound 310, 2-[5-chloro-4-[(5-cyclopropyl-1H-pyrazol-3-yl)amino]-pyrimidin-2-yl]-4,5,6,7-tetrahydrobenzothiazol-7-ol]
The Ki of the first is lower: 10 to 50 nM for the first, 100 to 500 nM for the second. The first binds more tightly here.

First: NS(=O)(=O)c1ccc(-c2nc(Nc3cc(C4CC4)n[nH]3)cc(C3CC3)n2)s1 [Compound 298, 5-(4-cyclopropyl-6-(3-cyclopropyl-1H-pyrazol-5-ylamino)pyrimidin-2-yl)thiophene-2-sulfonamide]
Second: NS(=O)(=O)c1ccc(-c2nc(Nc3cc(C4CC4)n[nH]3)c(Cl)c(C3CC3)n2)s1 [Compound 304, 5-(5-chloro-4-cyclopropyl-6-(3-cyclopropyl-1H-pyrazol-5-ylamino)pyrimidin-2-yl)thiophene-2-sulfonamide]
The Ki of the first is higher: 50 to 100 nM for the first, 1 to 10 nM for the second. The second binds more tightly here.

`NS(=O)(=O)c1ccc(-c2ncc(Cl)c(Nc3cc(C4CC4)[nH]n3)n2)cn1` [Compound 299, 5-[5-chloro-4-[(5-cyclopropyl-1H-pyrazol-3-yl)amino]-pyrimidin-2-yl]pyridine-2-sulfonamide] and `CC(C)(C)NS(=O)(=O)c1ccc(-c2ncc(Cl)c(Nc3cc(C4CC4)[nH]n3)n2)cn1` [Compound 302, 5-[5-chloro-4-[(5-cyclopropyl-1H-pyrazol-3-yl)amino]-pyrimidin-2-yl]-N-tert-butyl-pyridine-2-sulfonamide] fall in the same range of Ki: 10 to 50 nM for the first, 10 to 50 nM for the second.

Compared with `CC(=O)OCCc1cnc(-c2ccc(S(=O)(=O)NC(C)(C)C)s2)nc1Nc1cc(C2CC2)[nH]n1` [Compound 309, 2-[4-[(5-cyclopropyl-1H-pyrazol-3-yl)amino]-2-[5-(tert-butylsulfamoyl)-2-thienyl]-pyrimidin-5-yl]ethyl acetate], `NS(=O)(=O)c1ccc(-c2ncc(CCCO)c(Nc3cc(C4CC4)[nH]n3)n2)s1` [Compound 319, 5-[4-[(5-cyclopropyl-1H-pyrazol-3-yl)amino]-5-(3-hydroxypropyl)pyrimidin-2-yl]thiophene-2-sulfonamide] is lower in Ki: 100 to 500 nM for the first, 1 to 10 nM for the second.

`NS(=O)(=O)c1ccc(-c2nc(Nc3cc(C4CC4)n[nH]3)ncc2Cl)s1` [Compound 314, 5-[5-chloro-2-[(5-cyclopropyl-2H-pyrazol-3-yl)amino]-pyrimidin-4-yl]thiophene-2-sulfonamide] and `NS(=O)(=O)c1ccc(-c2ccnc(Nc3cc(C4CC4)n[nH]3)n2)s1` [Compound 315, 5-[2-[(5-cyclopropyl-2H-pyrazol-3-yl)amino]pyrimidin-4-yl]thiophene-2-sulfonamide] fall in the same range of Ki: 1 to 10 nM for the first, 1 to 10 nM for the second.

First: NS(=O)(=O)c1cc(-c2nccc(Nc3cc(C4CC4)[nH]n3)n2)ccc1O [Compound 318, 5-[4-[(5-cyclopropyl-1H-pyrazol-3-yl)amino]pyrimidin-2-yl]-2-hydroxy-benzenesulfonamide]
Second: CN1CCN(c2cc(Nc3cc(C4CC4)[nH]n3)nc(-c3ccc(S(N)(=O)=O)s3)n2)CC1 [Compound 325, 5-[4-[(5-cyclopropyl-1H-pyrazol-3-yl)amino]-6-(4-methylpiperazin-1-yl)-pyrimidin-2-yl]thiophene-2-sulfonamide]
The Ki of the first is lower: 10 to 50 nM for the first, 100 to 500 nM for the second.

`CC1CC1c1cc(Nc2nc(-c3ccc(S(=O)(=O)NC(C)(C)C)s3)ncc2Cl)n[nH]1` (centres unmarked) [Compound 321, 5-[5-chloro-4-[[5-(2-methylcyclopropyl)-1H-pyrazol-3-yl]amino]-pyrimidin-2-yl]-N-tert-butyl-thiophene-2-sulfonamide] and `CC(C)(C)OC(=O)Nc1ccc(-c2ncc(Cl)c(Nc3cc(C4CC4)[nH]n3)n2)s1` [Compound 324, tert-butyl [[5-[5-chloro-4-[(5-cyclopropyl-1H-pyrazol-3-yl)amino]-pyrimidin-2-yl]-2-thienyl]amino]formate] fall in the same range of Ki: 100 to 500 nM for the first, 100 to 500 nM for the second.
